These results are taken from patent publication US8957215B2, “Heteroaryl substituted benzothiazoles” (Navidea Biopharmaceuticals, Inc., priority 2006, dated 2015).

Like-named read-outs stand apart in the source and are kept apart here.

For series [1] the following is noted: during the first 5-10 min, reference radioligands; cited from earlier work.
Series [2] has as its target T1, synthetic Aβ 1-40 (Homo sapiens, UniProt P05067).
T1 construct: using synthetic Aβ 1-40 in 2.7 nM of [^3H]PIB
As to the kind of experiment: Competition binding assay with [^3H]PIB as radioligand. The procedure:
(§1) Competition binding was performed in 384-well FB filter plates using synthetic Aβ 1-40 in 2.7 nM of [^3H]PIB (or another ^3H-labeled radioligand when so mentioned) in phosphate buffer at pH 7.5, by adding various concentrations of non-radioactive compounds originally dissolved in DMSO. The binding mixture was incubated for 30 min at room temperature, followed by vacuum filtration, and subsequentially by washing twice with 1% Triton-X100. Scintillation fluid was thereafter added to the collected Aβ 1-40 on the filter plate, and the activity of the bound remaining radioligand ([^3H]PIB or another ^3H-labeled radioligand) was measured using 1450 Microbeta from PerkinElmer.
Specific binding was determined according to the competition binding assay described herein. The determined IC50's in the competition binding assays (using [^3H]PIB as radioligand) of 5 compounds of the present invention are shown in Table 1. Results (activity of remaining [^3H]PIB versus increasing concentration of non-labeled compounds) from typical competition assay experiments are exemplified in FIG. 1. In a similar way, competition studies with ^3H-labeled heteroaryl substituted benzthiazole derivates of the present invention were also conducted. Such results, from a typical competition study, are examplified in FIG. 2. PIB and 2-[6-(methylamino)pyridin-3-yl]-1,3-benzothiazol-6-ol (a novel compound of the present invention) both displaced [N-methyl-^3H3]-2-(6-methylamino-pyridin-3-yl)-benzothiazol-6-ol (a ^3H-labeled compound of the present invention). The binding of [N-methyl-^3H3]-2-(6-methylamino-pyridin-3-yl)-benzothiazol-6-ol (example 32) to Aβ1-40 fibrils, was reversible as evident from the dissociation experiment exemplified in FIG. 3.

Series [3] in a line: In vivo rat brain entry study. The note with it: i.v. As for the experimental part:
Brain exposure after i.v administration was determined in rat brains using cassette dosing. Four different compounds were dosed followed by plasma and brain sampling at 2 and 30 minutes after the dosing. 2 to 30 min brain concentration ratios, and percentage of total of injected dose after 2 mins found in brain, were calculated. The compound concentrations were determined by analysis of protein precipitated plasma samples by reversed-phase liquid chromatography coupled to a electrospray tandem mass spectrometer.
FIG. 4. Brain and plasma concentration at 2 and 30 minutes after i.v. administration in rat of PIB (upper graph “A”), and 2-[6-(methylamino)pyridin-3-yl]-1,3-benzothiazol-6-ol (lower graph “B”), a compound of the present intervention (example 27).

Series [4] concerns the target T2, human synthetic Aβ 1-40 fibrils (Homo sapiens, UniProt P05067).
T2 construct: 2 μM human synthetic Aβ 1-40 fibrils in phosphate buffer pH 7.5
As to the kind of experiment: Dissociation experiment. The series is classed as binding. The conditions noted are these: FIG. 3. As for the experimental part: Dissociation experiments were performed in 96-well polypropylene deep well plates. 2 μM human synthetic Aβ 1-40 fibrils in phosphate buffer pH 7.5, or buffer alone as control, was incubated with 9 nM of a ^3H-labeled radioligand of the present invention for 4 h at room temperature. Dissociation was started at different time points, by the addition of an equal volume of a non-labeled compound of the present invention, or a reference compound (10 μM), in 4% DMSO in phosphate buffer at pH 7.5. The radioactivity still bound to the Aβ 1-40 fibrils at the end of the incubation was detected on FB filters after filtration in a Brandel apparatus using a wash buffer containing 0.1% Triton-X100.
FIG. 3. Example of a dissociation experiment: Dissociation of [N-methyl-^3H3]-2-(6-methylamino-pyridin-3-yl)-benzothiazol-6-ol (example 32) from Aβ1-40 fibrils over time.

The subject of series [5] is amyloid plaques in post-mortem human AD brains. As to the kind of experiment: Binding to amyloid plaques in post-mortem human AD brain sections. The procedure: (§2) Slide-mounted brain sections (10 μm) from APP/PS1 transgenic mice were collected at the level of the lateral septum (bregma+0.98 mm; see Paxinos and Franklin, 2001). Human cortical sections (7 μm) from two AD patients and 1 control subject were obtained from a Dutch tissue bank.
(§3) Sections were preincubated for 30 minutes at room temperature in 50 mM Tris HCl (pH 7.4) in the presence or absence of 1 μM PIB. Sections were transferred to buffer containing tritium-labeled compound (1 nM) with or without PIB (1 μM) and incubated for 30 minutes at room temperature. Incubation was terminated by 3 consecutive 10 minute rinses in buffer (1° C.) followed by a rapid rinse in distilled water (1° C.). Sections were air dried in front of a fan. Dried sections and plastic tritium standards (Amersham microscales-^3H) were apposed to phosphoimage plates (Fuji) in a cassette and exposed overnight. The following morning, the image plates were processed with a Fuji phosphoimager (BAS 2500) using BAS Reader software. The resulting image was converted to TIF format using Aida software, optimized with Adobe Photoshop (v 8.0) and quantified using Image-J (NIH). Data were statistically analyzed using Excel.

Series [6] has as its system amyloid plaques in APP/PS1 transgenic mice brain sections. The experiment in a line: Binding to amyloid plaques in APP/PS1 transgenic mouse brain sections. The conditions noted are these: 1 nM tritium-labeled compound. The procedure:
as §2, §3

Series [7] deals with amyloid plaques in APP/PS1 mouse brain. The series is classed as in vivo. The procedure:
Naïve, awake mice were restrained and intravenously infused via the tail vein with either a tritium labeled compound of the present invention, or a tritium labeled reference compound via the tail vein. In one type of experiment, the animals were rapidly anesthetized with isofluorane and decapitated twenty minutes after compound administration (1 mCi). In another type of experiment, mice were given 1 mCi of a compound and were anesthetized and decapitated at a timepoint of 20, 40 or 80 minutes after administration. Brains were removed and frozen with powdered dry ice. Brains were sectioned (10 μm) in the coronal plane at the level of the striatum with a cryostat, thaw-mounted onto superfrost microscope slides and air-dried.
Methods designed to optimize the imaging of bound ligand after in vivo administration were thereafter employed. To selectively reduce unbound radioactivity levels, one-half of the sections were rinsed (3×10 minutes) in cold (1° C.) Tris buffer (50 mM, pH7.4) followed by a rapid rinse in cold (1° C.) deionized water. Sections were then air dried in front of a fan. Rinsed as well as unrinsed sections and tritium standards were exposed to phosphoimage plates (Fuji). Phosphoimage plates were processed with a Fujifilm BAS-2500 phosphoimager using BAS Reader software.

Series [8] has as its target T1, synthetic Aβ 1-40. The experiment in a line: Competition binding assay with [N-methyl-^3H3]-2-(6-methylamino-pyridin-3-yl)-benzothiazol-6-ol as radioligand. The note with it: ^3H-labeled example 32 as radioligand, FIG. 2. As for the experimental part:
as §1
Specific binding was determined according to the competition binding assay described herein. The determined IC50's in the competition binding assays (using [^3H]PIB as radioligand) of 5 compounds of the present invention are shown in Table 1. Results (activity of remaining [^3H]PIB versus increasing concentration of non-labeled compounds) from typical competition assay experiments are exemplified in FIG. 1. In a similar way, competition studies with ^3H-labeled heteroaryl substituted benzthiazole derivates of the present invention were also conducted. Such results, from a typical competition study, are examplified in FIG. 2. […]

A short description of series [9]: Whole body PET measurement in monkey. In kind it is in vivo. The procedure: Whole body PET-measurement was performed in one monkey. A sterile physiological phosphate buffer (pH=7.4) solution containing 51 MBq of [^11C]PIB in the first measurement, and 57 MBq of a [^11C]-labelled compound of the present invention in the second measurement, was injected as a bolus into a sural vein over a period of 5 seconds with simultaneous start of PET-data acquisition that lasted for 87 min. The time between radioligand injections was 2 h. PET measurements were assessed visually by creating planar maximum intensity projection images of decay uncorrected data and also converting decay corrected images to ones containing parts-per-million (ppm) values of the total injected radioactivity.

The nature of series [10]: Brain PET study in monkey. The series is classed as in vivo. The procedure:
The monkey PET study aimed to assess and compare a [^11C]-labelled compound of this invention to [^11C]PIB regarding measures of brain availability, non-specific binding in the brain, whole body biodistribution, elimination and exploration of regional differences in uptake. Five brain PET measurements were performed in three monkeys under anesthesia. In each PET-measurement a sterile physiological phosphate buffer (pH=7.4) solution containing 52-55 MBq of either a [^11C]-labelled compound of this invention, or [^11C]PIB, was injected as a bolus into a sural vein over a period of 5 seconds with simultaneous start of PET-data acquisition. Radioactivity in brain was measured continuously for 93 minutes. Only [^11C]PIB measurement was performed in the first monkey. In the other two monkeys a [^11C]-labelled compound of the present invention was measured first and [^11C]PIB was administered in a subsequent measurement. The time between radioligand injections was approx. 2 h. PET measurements were evaluated with respect to the time-activity curve for the whole brain expressed as percent injected radioactivity dose.

T1 sequence (P05067 672-711 limits assumed): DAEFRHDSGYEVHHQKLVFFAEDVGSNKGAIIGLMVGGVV
T2 sequence (P05067 672-711 limits assumed): as above

For the molecule `CCN1CCC[C@H]1CNC(=O)c1c(O)c(Cl)cc(Cl)c1O[11CH3]` (racemic) [[^11C]raclopride], in [1], the “fraction of the total injected radioactivity present in the brain” value is 1-2%.
In the case of `CN1CCN(c2ccc(-c3nc4ccc(O)cc4s3)cn2)CC1` [Example 6, 2-[6-(4-Methylpiperazin-1-yl)pyridin-3-yl]-1,3-benzothiazol-6-ol Acetate], the IC50 at synthetic Aβ 1-40 [2] came to 176 nM.
The same measure, in the same setting: for `COc1ccc(-c2nc3ccc(C(N)=O)cc3s2)cn1` [Example 9, 2-(6-Methoxypyridin-3-yl)-1,3-benzothiazole-6-carboxamide] the value was 170 nM; for `CC(=O)Nc1ccc2nc(-c3ccc(N4CCN(C)CC4)nc3)sc2c1` [Example 15, N-{2-[6-(4-Methylpiperazin-1-yl)pyridin-3-yl]-1,3-benzothiazol-6-yl}acetamide], 186 nM; for `CNc1ccc(-c2nc3ccc(OC)cc3s2)cn1` [Example 25, 5-(6-Methoxy-1,3-benzothiazol-2-yl)-N-methylpyridin-2-amine], 58 nM.
`CNc1ccc(-c2nc3ccc(O)cc3s2)cn1` [Example 27, 2-[6-(Methylamino)pyridin-3-yl]-1,3-benzothiazol-6-ol]: the “2 minute to 30 minute brain concentration ratio” value in [3] was more than 15. Further, the brain uptake value in series [3] (2 min time point) is reported as 1 % of the injected dose.
As to `[3H]C([3H])([3H])Nc1ccc(-c2nc3ccc(O)cc3s2)cn1` [Example 32, [N-Methyl-^3H3]-2-(6-Methylamino-pyridin-3-yl)-benzothiazol-6-ol], the “reversibility of binding to Aβ1-40 fibrils” value in series [4] is “reversible”. In [5] (human cortical sections), the “levels of nonspecific binding compared to [^3H]PIB” value is reported as “substantially reduced”. For the same molecule, the “labeling of dense core plaques” value in [5] (human cortical sections, 1 nM tritium-labeled compound) is “labeled dense core plaques”; in [6], “labeled dense core plaques”. In addition, the “specific binding levels greater than binding observed with [^3H]PIB” value in series [5] (superficial gray layers of human cortex) is “approximately 40%”. Besides, the “cortical plaque labeling in rinsed tissue” value in series [7] (20 minutes after administration) is “highest”; in series [7] (80 minutes after administration), “barely detectable”. In [7] (APP/PS1 mice, decapitation 20 minutes after administration), the “labeling of cortical structures after in vivo administration” value is listed as “labeled cortical structures”. Besides, in series [7] (corpus callosum (white matter)), the “effect of in vitro rinse on levels in corpus callosum” value is recorded as “dramatically reduced”. Besides, the “reduction of nonspecific binding by in vitro rinse” value in series [7] (striatum (gray matter)) is 78.5%.
Consider `CNc1ccc(-c2nc3ccc(O)cc3s2)cc1` [PIB], for which the “displacement of [N-methyl-^3H3]-2-(6-methylamino-pyridin-3-yl)-benzothiazol-6-ol” value on synthetic Aβ 1-40 [8] is on record as “displaced”.
On to `[11CH3]Nc1ccc(-c2nc3ccc(O)cc3s2)cc1` [[^11C]PIB, reference compound], for which the elimination routes entry in series [9] was “urinary excretion and hepatobiliary secretion”.
Consider `[11CH3]Nc1ccc(-c2nc3ccc(O)cc3s2)cn1` [^11C-Example 1, [N-Methyl-^11C]-2-(6-Methylamino-pyridin-3-yl)-benzothiazol-6-ol], for which the “brain concentration after the peak” value in [10] (monkey) was “declined rapidly”. The “unspecific binding as compared to [^11C]PIB” value in series [10] (monkey brain, time points of relevance for PET-detection) is “significantly lower”. The brain exposure in [10] (monkey, FIG. 12) is on record as 1-3 % of total injected radioactivity. For the same molecule, in series [10] (monkey, after injection), the “time of peak brain uptake” value is reported as “first minute”. Also, in series [9], the “elimination as compared to [^11C]PIB” value is given as “faster elimination”; the elimination routes result was “urinary excretion and hepatobiliary secretion”.
